Assay results reported in US6407125B1, “Pharmacological agent and method of treatment” (Novactyl, Inc., priority 1995, dated 2002).

Assays:
[1] = tested on: normal cells; conditions: longer exposure; most normal cells; cited from earlier work
[2] = cited from earlier work
[3] = tested on: transformed cells; conditions: cited from earlier work
[4] = Topical treatment of sunburn; type: in vivo; conditions: 1%, 5% or 10% picolinic acid in absorption base; over 25 cases
From the text: Furthermore, it is believed that the response of cells to stress, such as exposure to UV radiation, chemicals, bacteria, parasites or fungi is associated with the induction of heat shock proteins.

[5] = tested on: WI-38 cells; assay: Growth of WI-38 cells (total cell protein, cell number); type: cell-based; conditions: 3 mM picolinic acid
Experimental: (§1) Cells were plated at 1.5×10^5 cells/60-mm dish; 48 hours later, the medium was removed, and new media with or without 3 mM picolinic acid was added. Total cell protein was determined at the indicated times; each point is the average of triplicate measurements from 2 cultures.
(§2) In initial experiments to examine the effects of fusaric acid on cell growth and viability, WI-38 and LoVo cells were incubated for 24 to 72 hours in medium with or without various doses of fusaric acid (0.1-1 mM). The growth of both WI-38 and LoVo cells was inhibited by 500 μM fusaric acid in a time and dose dependent manner, as shown below in Table 2.

[6] = tested on: papilloma virus; assay: Topical treatment of ulcerative papilloma virus lesion in a horse; type: in vivo; conditions: for diameter of the lesion: initially 3 inch
Experimental: The lesion was progressive, with total loss of hair over the area. The diagnosis was viral disease, i.e. papilloma virus, complicated by fungal infection. The horse was treated with conventional local antibiotic and chemical therapies for about four months.
An aqueous solution of 10% picolinic acid in deionized water was applied every other day with a cotton swab over and around the lesion. The treatment continued for 45 days. The course of the regression of the viral lesion was as follows: […]

[7] = Nasal spray treatment of upper respiratory infection; type: in vivo, human; conditions: nasal spray 3 mM in physiologic saline, evening and bedtime, upon arising
Experimental: A college student presented with nasal congestion, slight fever, cough and sore throat. The subject began treatment with nasal spray containing 3 mM picolinic acid in physiologic saline vehicle. The subject used one or two sprays in each nostril after evening meal and before bedtime.

[8] = tested on: plantar wart; assay: Topical treatment of virus-induced plantar ulcer; type: in vivo, human
Experimental: A patient with recurrent plantar wart of about 2 cm in diameter was treated with topical picolinic acid. The patient, a pathologist who had difficulty walking because of the pain caused by the ulcer, had experimented with numerous medications for more than three months without any significant results prior to treatment with the picolinic acid. It is relevant to note that many plantar ulcers are transformed into malignant tumors.
The patient was treated with a solution of 10% picolinic acid in deionized water for one week. […] They then were treated with 10% picolinic acid in Aquaphor. The ointment was placed on the ulcer and on a patch. The patch was replaced every 24 hours.

[9] = tested on: LoVo cells; assay: Growth of LoVo cells (total cell protein, cell number, DNA synthesis); type: cell-based, human; conditions: 3 mM picolinic acid
Experimental: as §1, §2
After 30 hours of treatment with 500 μM fusaric acid, there was a prominent decrease in cell number. DNA synthesis was completely (100%) inhibited by 24 hours. When treated with 500 μM fusaric acid, the majority of the LoVo cells acquired a rounded morphology by 48 hours.
However, after 100 hours, an increase in cell number was noted after 25 additional hours.

[10] = tested on: metastatic breast cancer; assay: Topical treatment of metastatic breast cancer to skin and bone of the skull; type: in vivo, human; conditions: 10% in Aquaphor, changed twice daily, approximately 35 days
Experimental: A person with metastatic breast cancer to the skin and bone of the skull was treated with a topical preparation of 10% picolinic acid in Aquaphor. The preparation was applied to the cancerous lesions and to a bandage and changed twice daily. The multiple cancer lesions were approximately 1 to 1.5 cm in diameter.

[11] = tested on: human papilloma viruses; assay: Topical treatment of common warts; type: in vivo; conditions: 10% to 20% solution or 10% ointment in Aquaphor
Experimental: Five patients ranging in age from 11 years to 52 years and each having at least one common wart induced by human papilloma viruses was treated with a topical preparation of picolinic acid The topical preparation was either solution of 10% to 20% picolinic acid in deionized water or a topical ointment wherein 10% picolinic acid is incorporated into Aquaphor, i.e. 1 g of picolinic acid in 10 g of Aquaphor.

[12] = Stability experiments as preservative in foods and on fresh fruits; type: physicochemical; conditions: in foods and on the surface of fresh fruits
From the text: The chelating agents of the present invention can be used as preservatives in perishable items such as foods and pharmaceuticals and to prevent fungal growth on the surface of fresh fruits. Presently chemicals such as citrashine orthophenilphenol thiabendazole are used. […] Microbial and fungal growth is inhibited while the food components are unaffected. The preservative of the present invention has less likelihood of toxicity or untoward reactions if ingested that the present, complex chemical antifungals. The preferred concentration of picolinic acid or acceptable derivative for this use is approximately below 0.025% to be classified as a preservative. Of course, greater percentages, e.g. up to 99.9% also would be effective.

[13] = Topical treatment of psoriasis; type: in vivo, human; conditions: preliminary information
From the text: Several patients suffering from proliferative skin disorders such as psoriasis have been included in a recent ongoing study of the anti-proliferative effects of topical picolinic acid. […] The patients may be treated with a topical application of approximately 5% to 20% picolinic acid, or a derivative thereof, in an absorption base. Alternatively, the patient may be treated with a solution containing approximately 5% to 20% picolinic acid, or derivative, in deionized water. The topical preparation may be applied twice a day or in an alternative pharmacologically acceptable regimen.

O=C(O)c1ccccn1 [picolinic acid, 2-Pyridine carboxylic acid]
toxic effects in normal cells [1]: no toxic effects
solubility in water [2]: readily soluble in water
cytotoxicity in transformed cells [3]: cytotoxicity and cell death
treatment of sunburn [4]: successfully used
toxic effects on WI-38 cells ([5]; up to 72 hours of treatment): no toxic effects
growth of WI-38 cells ([5]; within 24 hours): inhibited
reversibility of growth inhibition ([5]; within 24 hours of removal of the agent): reversible
lesion appearance ([6]; 10% aqueous solution every other day, after 10 days): central necrosis
diameter of the lesion ([6]; 10% aqueous solution, after 20 days): approximately 2 inches
diameter of the lesion ([6]; 10% aqueous solution, after 30 days): about 1 inch
lesion outcome ([6]; 10% aqueous solution, at 45 days): resolved with some scar tissue
recurrence ([6]; three additional months after treatment): without evidence of recurring disease
upper respiratory symptoms [7]: no fever or sore throat symptoms
plantar ulcer appearance ([8]; 10% solution in deionized water for one week): Central necrosis was noted
plantar ulcer outcome ([8]; then 10% in Aquaphor on ulcer and patch, additional three weeks): the plantar ulcer resolved
growth of LoVo cells [9]: inhibited
cancer lesion outcome [10]: resolved with scar tissue forming
wart outcome ([11]; after approximately 4 to 6 weeks): the warts were gone
wart appearance ([11]; after seven days, five patients): central necrosis of the wart occurred
stability as a preservative [12]: highly stable
regression of psoriasis [13]: significant effect in inducing regression of the psoriasis
